The values below come from patent US5482945A, “Innovative technique for immunosuppression involving administration of rapamycin loaded formed blood elements” (American Home Products Corporation, priority 1992, dated 1996).

Like-named read-outs stand apart in the source and are kept apart here.

Data set [1] relates to transplanted tissue or organ. Conditions: parenteral administration to donor before transplant; cited from earlier work.
Data set [2] deals with red blood cells. Conditions: cited from earlier work.
Data set [3] relates to red blood cells. The conditions noted are these: cited from earlier work. The source holds these as a separate data set.
The test system of data set [4] is peripheral blood mononuclear cells and erythrocytes. Conditions: cited from earlier work.
Data set [5] has as its system T-lymphocytes. Conditions: cited from earlier work.
In data set [6] the test system is FK-506 binding protein (FKBP). Conditions: cited from earlier work.
Data set [7] deals with adjuvant arthritis. The conditions noted are these: rats; cited from earlier work.
Data set [8] relates to erythrocytes. Kind of data set: Hemolysis by rapamycin. It is filed as cell-based.
In data set [9] the test system is experimental allergic encephalomyolitis. Conditions: rats; cited from earlier work.
Data set [10] is described as follows: Equilibrium of rapamycin between formed blood elements (FBE), whole blood and plasma in rat blood. It is filed as in vitro ADME. The conditions noted are these: for Kp: formed blood elements, read-out: FBE to plasma ratio. The method, then: In human blood, erythrocytes comprise about 85 to 90 percent of the formed blood elements (microscopically visible). Human whole blood is comprised of about 46% formed blood elements and 54% plasma. Equilibrium of rapamycin between the rapamycin-loaded formed blood elements (FBE) and the plasma is quickly established and is seen to be species dependent. In rat blood containing rapamycin at a concentration of 38 ng/ml, the whole blood and FBE to plasma ratios were 1.3 and 1.7 respectively and at a concentration of 200 ng/ml the ratios were 0.8 and 0.5 respectively.

For data set [11], the system named is graft rejection. Conditions: donor pretreatment intravenously, rats; cited from earlier work.
Data set [12] has as its system lymphatic leukemia, colon and mammary cancers, melanocarcinoma and ependymoblastoma. Conditions: cited from earlier work.
For data set [13], the system named is restenosis (smooth muscle cell proliferation and internal thickening following vascular injury). The conditions noted are these: cited from earlier work.
Data set [14] can be described thus: Whole blood to plasma concentration ratio in humans receiving rapamycin. It is filed as in vivo. Conditions: human, read-out: ratio of whole blood to plasma concentrations. As to the method:
(§1) In human blood at rapamycin concentrations between 76 and 189 ng/ml, the whole blood and FBE to plasma ratios after 30 minutes incubation at 37° C. were 12±2 and 23.7±3.9 respectively. Similarly, at a concentration of 482 ng/ml, the ratios were 1.1 and 1.3 respectively. The ratios of whole blood to plasma concentrations in monkeys receiving rapamycin was 10±6 and in humans the ratio was 12±2, and indication that a species difference exists between primates and other mammals.

In data set [15] the test system is mouse T-cells. The conditions noted are these: combination with Cyclosporin A; ionomycin + PMA stimulation; cited from earlier work.
In data set [16] the test system is humoral (IgE-like) antibodies. Conditions: rats, albumin allergic challenge; cited from earlier work.
A short description of data set [17]: Equilibrium of rapamycin between formed blood elements (FBE), whole blood and plasma in human blood. It is filed as in vitro ADME. Conditions: for Kp: formed blood elements, read-out: FBE to plasma ratio. The method, then: as §1
Data set [18] has as its system transplant rejection. The conditions noted are these: cited from earlier work.
A short description of data set [19]: Whole blood to plasma concentration ratio in monkeys receiving rapamycin. It is filed as in vivo. The conditions noted are these: monkey, read-out: ratio of whole blood to plasma concentrations. The method, then: as §1
Data set [20] concerns FKBP. Kind of data set: Binding of rapamycin to FKBP in formed blood elements (erythrocytes).
Where [21] appears, read: rapamycin 76 to 189 ng/ml, 30 minutes incubation at 37° C.

For cyclosporin A, the “rejection of the transplanted tissue or organ” value in data set [1] is recorded as “reduce rejection of the transplanted tissue or organ”.
`COc1cccc2c1C(=O)c1c(O)c3c(c(O)c1C2=O)C[C@@](O)(C(C)=O)C[C@@H]3O[C@H]1C[C@H](N)[C@H](O)[C@H](C)O1` [Daunomycin]: the “binding to red blood cells” value in data set [2] (red blood cells first treated with Amphotericin B) is reported as “will bind daunomycin”; in data set [2] (untreated red blood cells) it was “will not bind to red blood cells”.
For the molecule methylprednisone, the “rejection of the transplanted tissue or organ” value in data set [1] is given as “reduce rejection of the transplanted tissue or organ”.
Consider `CC1\C=C/C=C\C=C\C=C\C=C\C=C\C=C\C(OC2OC(C)C(O)C(N)C2O)CC2OC(O)(CC(O)CC(O)CC(O)CC(O)CC(=O)CC(O)CC(=O)OC1C(C)CCC(O)CC(=O)c1ccc(N)cc1)CC(O)C2C(=O)O` (centres unmarked) [vacidin A], for which, in data set [3], the “binding with red blood cells and hemolysis” value was “bind with red blood cells and cause hemolysis to occur”.
For `C[C@@H]1[C@H](O)[C@@H](C)/C=C/C=C/C=C/C=C/C=C/C=C/C=C/[C@H](O[C@@H]2O[C@H](C)[C@@H](O)[C@H](N)[C@@H]2O)C[C@@H]2O[C@](O)(C[C@@H](O)C[C@@H](O)[C@H](O)CC[C@@H](O)C[C@@H](O)CC(=O)O[C@H]1C)C[C@H](O)[C@H]2C(=O)O` [Amphotericin B], the “effect on sterols and cell membranes” value in data set [3] was “binds to sterols and perforates cell membranes”.
For the molecule `C=CC[C@@H]1/C=C(\C)C[C@H](C)C[C@H](OC)[C@H]2O[C@@](O)(C(=O)C(=O)N3CCCC[C@H]3C(=O)O[C@H](/C(C)=C/[C@@H]3CC[C@@H](O)[C@H](OC)C3)[C@H](C)[C@@H](O)CC1=O)[C@H](C)C[C@@H]2OC` [FK-506], in [1], the “rejection of the transplanted tissue or organ” value is recorded as “reduce rejection of the transplanted tissue or organ”. Also, the “absorption and retention by peripheral blood mononuclear cells and erythrocytes” value in data set [4] was “absorbed and retained”. Moreover, the “activation of T-lymphocytes” value in [5] was “inhibits the activation of T-lymphocytes”. Also, the “binding with FKBP in the erythrocytes” value in [6] is “bind reversibly”.
Consider `CO[C@H]1C[C@@H]2CC[C@@H](C)[C@@](O)(O2)C(=O)C(=O)N2CCCC[C@H]2C(=O)O[C@H]([C@H](C)C[C@@H]2CC[C@@H](O)[C@H](OC)C2)CC(=O)[C@H](C)/C=C(\C)[C@@H](O)[C@@H](OC)C(=O)[C@H](C)C[C@H](C)/C=C/C=C/C=C/1C` [rapamycin], for which the “immune response in adjuvant arthritis” value in [7] is “inhibits the immune response”. Further, the hemolysis result in [8] was “does not cause hemolysis”. Besides, the “immune response in experimental allergic encephalomyolitis” value in data set [9] is given as “inhibits the immune response”. Also, the blood plasma ratio worked out at 1.3 in data set [10] (rapamycin 38 ng/ml); 0.8 in data set [10] (rapamycin 200 ng/ml); 12 ± 2 in data set [14]; 1.1 in [17] (rapamycin 482 ng/ml); 12 ± 2 in data set [17] (setting [21]); 10 ± 6 in [19]. In addition, the Kp in data set [10] (rapamycin 38 ng/ml) turned out to be 1.7; in [10] (rapamycin 200 ng/ml) it was 0.5; in data set [17] (rapamycin 482 ng/ml), 1.3; in data set [17] (setting [21]), 23.7 ± 3.9. Further, the “rejection of the transplanted tissue or organ” value in data set [1] is “reduce rejection of the transplanted tissue or organ”. In addition, in [11], the graft rejection entry is on record as “reduce graft rejection”. For the same molecule, in data set [12], the antitumor activity result is reported as “antitumor activity”. Also, the restenosis entry in data set [13] is “inhibits restenosis”. For the same molecule, the “suppressive activity of Cyclosporin A in T-cell proliferation, IL-2 production and IL-2R expression” value in [15] is reported as “potentiates the suppressive activity of Cyclosporin A”. Further, the “humoral (IgE-like) antibodies” value in data set [16] is “prevents humoral (IgE-like) antibodies”. Further, in data set [18], the transplant rejection entry is “inhibition of transplant rejection”. Moreover, in data set [20], the “binding with FKBP in formed blood elements (erythrocytes)” value is recorded as “bind reversibly with the binding protein FKBP”.
Regarding `O=P1(N(CCCl)CCCl)NCCCO1` (centres unmarked) [cyclophosphamide], the “rejection of the transplanted tissue or organ” value in data set [1] is listed as “reduce rejection of the transplanted tissue or organ”.
